According to PubChem BioAssay (NCI):
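Cultured in 96-well plates, cells were exposed to test compound for 48 hours across five concentrations. Abbreviation: GI50, concentration required for 50% inhibition of growth. Definition used: TGI = concentration required for complete inhibition of growth.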

Key:
Test in all cases: NCI-60 cell line screen, 48 h
HCT-15 colon = tested on: HCT-15 colon
EKVX NSCLC = tested on: EKVX NSCLC
HS 578T breast = tested on: HS 578T breast
A549 NSCLC = tested on: A549 NSCLC
NCI-H23 lung = tested on: NCI-H23 lung
PC-3 prostate = tested on: PC-3 prostate
SK-OV-3 ovarian = tested on: SK-OV-3 ovarian
SF-268 CNS = tested on: SF-268 CNS
OVCAR-5 ovarian = tested on: OVCAR-5 ovarian
HOP-62 NSCLC = tested on: HOP-62 NSCLC
SF-295 CNS = tested on: SF-295 CNS
CAKI-1 renal = tested on: CAKI-1 renal
T-47D breast = tested on: T-47D breast
NCI-H522 lung = tested on: NCI-H522 lung
SNB-19 CNS = tested on: SNB-19 CNS
K-562 leukemia = tested on: K-562 leukemia
ACHN renal = tested on: ACHN renal
MDA-MB-435 = tested on: MDA-MB-435
786-0 renal = tested on: 786-0 renal
MDA-MB-231 breast = tested on: MDA-MB-231 breast
OVCAR-4 ovarian = tested on: OVCAR-4 ovarian
MALME-3M melanoma = tested on: MALME-3M melanoma
TK-10 renal = tested on: TK-10 renal
COLO 205 colon = tested on: COLO 205 colon
MOLT-4 leukemia = tested on: MOLT-4 leukemia
SNB-75 CNS = tested on: SNB-75 CNS
HCC-2998 colon = tested on: HCC-2998 colon
UACC-62 melanoma = tested on: UACC-62 melanoma
UO-31 renal = tested on: UO-31 renal
BT-549 breast = tested on: BT-549 breast
SN12C renal = tested on: SN12C renal
NCI/ADR-RES ovarian = tested on: NCI/ADR-RES ovarian
LOX IMVI melanoma = tested on: LOX IMVI melanoma
U251 CNS = tested on: U251 CNS
OVCAR-8 ovarian = tested on: OVCAR-8 ovarian
RXF 393 renal = tested on: RXF 393 renal
A498 renal = tested on: A498 renal
KM12 colon = tested on: KM12 colon
CCRF-CEM leukemia = tested on: CCRF-CEM leukemia
NCI-H226 lung = tested on: NCI-H226 lung
SW-620 colon = tested on: SW-620 colon
IGROV1 ovarian = tested on: IGROV1 ovarian
NCI-H460 lung = tested on: NCI-H460 lung
HOP-92 NSCLC = tested on: HOP-92 NSCLC
UACC-257 melanoma = tested on: UACC-257 melanoma
SR leukemia = tested on: SR leukemia
M14 melanoma = tested on: M14 melanoma
SF-539 CNS = tested on: SF-539 CNS
MCF7 breast = tested on: MCF7 breast
SK-MEL-2 melanoma = tested on: SK-MEL-2 melanoma
HCT-116 colon = tested on: HCT-116 colon
SK-MEL-28 melanoma = tested on: SK-MEL-28 melanoma
RPMI-8226 leukemia = tested on: RPMI-8226 leukemia
SK-MEL-5 melanoma = tested on: SK-MEL-5 melanoma
DU-145 prostate = tested on: DU-145 prostate
OVCAR-3 ovarian = tested on: OVCAR-3 ovarian
HL-60(TB) leukemia = tested on: HL-60(TB) leukemia
HT29 colon = tested on: HT29 colon

How did the GI50 (HCT-15 colon) turn out when `CCN1C(=O)N(CC)C2C1NN=c1s/c(=C3\C(=O)N(CC(C)C)c4ccccc43)c(=O)n12` (centres undefined) was run?
The GI50 was 0.438 µM.

What about the TGI (HCT-15 colon) of the same compound?
The TGI was greater than 100 µM.

What about the GI50 (EKVX NSCLC) of the same compound?
Its GI50 is 1.56 µM.

And the TGI (EKVX NSCLC)?
The TGI was greater than 100 µM.

And the GI50 (HS 578T breast)?
The GI50 was 0.665 µM.

What about the TGI (HS 578T breast) of the same compound?
Its TGI is 23.9 µM.

What about the GI50 (A549 NSCLC) of the same compound?
Its GI50 is 0.957 µM.

What about the TGI (A549 NSCLC) of the same compound?
Its TGI is greater than 100 µM.

What about the GI50 (NCI-H23 lung) of the same compound?
Its GI50 is 2.19 µM.

What about the TGI (NCI-H23 lung) of the same compound?
Its TGI is greater than 100 µM.

And the GI50 (PC-3 prostate)?
The GI50 was 0.514 µM.

And the TGI (PC-3 prostate)?
The TGI was greater than 100 µM.

What about the GI50 (SK-OV-3 ovarian) of the same compound?
The GI50 was 0.493 µM.

And the TGI (SK-OV-3 ovarian)?
The TGI was 39.8 µM.

What about the GI50 (SF-268 CNS) of the same compound?
The GI50 was 1.32 µM.

What about the TGI (SF-268 CNS) of the same compound?
The TGI was greater than 59.9 µM.

What about the GI50 (OVCAR-5 ovarian) of the same compound?
Its GI50 is 2.27 µM.

And the TGI (OVCAR-5 ovarian)?
Its TGI is greater than 100 µM.

What about the GI50 (HOP-62 NSCLC) of the same compound?
Its GI50 is 0.797 µM.

And the TGI (HOP-62 NSCLC)?
Its TGI is 34.8 µM.

What about the GI50 (SF-295 CNS) of the same compound?
The GI50 was 0.542 µM.

And the TGI (SF-295 CNS)?
Its TGI is 11.4 µM.

What about the GI50 (CAKI-1 renal) of the same compound?
The GI50 was 0.522 µM.

What about the TGI (CAKI-1 renal) of the same compound?
Its TGI is greater than 100 µM.

And the GI50 (T-47D breast)?
The GI50 was 0.311 µM.

And the TGI (T-47D breast)?
Its TGI is greater than 100 µM.

What about the GI50 (NCI-H522 lung) of the same compound?
The GI50 was 0.4 µM.

And the GI50 (SNB-19 CNS)?
The GI50 was 1.89 µM.

What about the TGI (SNB-19 CNS) of the same compound?
The TGI was 39.2 µM.

And the GI50 (K-562 leukemia)?
Its GI50 is 0.429 µM.

What about the TGI (K-562 leukemia) of the same compound?
The TGI was greater than 100 µM.

And the GI50 (ACHN renal)?
Its GI50 is 0.723 µM.

And the TGI (ACHN renal)?
The TGI was greater than 45 µM.

And the GI50 (MDA-MB-435)?
The GI50 was 0.224 µM.

What about the TGI (MDA-MB-435) of the same compound?
Its TGI is 0.521 µM.

What about the GI50 (786-0 renal) of the same compound?
Its GI50 is 1.02 µM.

What about the TGI (786-0 renal) of the same compound?
Its TGI is 26.7 µM.

And the GI50 (MDA-MB-231 breast)?
The GI50 was 2.05 µM.

And the TGI (MDA-MB-231 breast)?
The TGI was greater than 30.6 µM.

And the GI50 (OVCAR-4 ovarian)?
Its GI50 is 1.23 µM.

What about the TGI (OVCAR-4 ovarian) of the same compound?
The TGI was greater than 100 µM.

What about the GI50 (MALME-3M melanoma) of the same compound?
Its GI50 is 0.885 µM.

What about the TGI (MALME-3M melanoma) of the same compound?
Its TGI is greater than 77.7 µM.

What about the GI50 (TK-10 renal) of the same compound?
The GI50 was 8.08 µM.

And the TGI (TK-10 renal)?
Its TGI is greater than 56.6 µM.

And the GI50 (COLO 205 colon)?
The GI50 was 0.401 µM.

What about the TGI (COLO 205 colon) of the same compound?
Its TGI is 2.32 µM.

What about the GI50 (MOLT-4 leukemia) of the same compound?
The GI50 was 0.974 µM.

And the TGI (MOLT-4 leukemia)?
Its TGI is greater than 100 µM.

What about the GI50 (SNB-75 CNS) of the same compound?
Its GI50 is 0.268 µM.

And the TGI (SNB-75 CNS)?
Its TGI is 3.82 µM.

What about the GI50 (HCC-2998 colon) of the same compound?
Its GI50 is 2.38 µM.

And the TGI (HCC-2998 colon)?
Its TGI is greater than 100 µM.

What about the GI50 (UACC-62 melanoma) of the same compound?
Its GI50 is 0.603 µM.

And the TGI (UACC-62 melanoma)?
Its TGI is 65.5 µM.

And the GI50 (UO-31 renal)?
The GI50 was 0.869 µM.

What about the TGI (UO-31 renal) of the same compound?
The TGI was greater than 100 µM.

And the GI50 (BT-549 breast)?
The GI50 was 2.45 µM.

What about the TGI (BT-549 breast) of the same compound?
The TGI was greater than 100 µM.

And the GI50 (SN12C renal)?
The GI50 was 1.95 µM.

And the TGI (SN12C renal)?
The TGI was greater than 100 µM.

What about the GI50 (NCI/ADR-RES ovarian) of the same compound?
Its GI50 is 0.479 µM.

What about the TGI (NCI/ADR-RES ovarian) of the same compound?
The TGI was greater than 30.4 µM.

What about the GI50 (LOX IMVI melanoma) of the same compound?
Its GI50 is 0.811 µM.

And the TGI (LOX IMVI melanoma)?
The TGI was greater than 100 µM.

What about the GI50 (U251 CNS) of the same compound?
The GI50 was 0.548 µM.

And the TGI (U251 CNS)?
Its TGI is 27.4 µM.

And the GI50 (OVCAR-8 ovarian)?
Its GI50 is 1.33 µM.

What about the TGI (OVCAR-8 ovarian) of the same compound?
The TGI was greater than 100 µM.

What about the GI50 (RXF 393 renal) of the same compound?
The GI50 was 0.335 µM.

What about the TGI (RXF 393 renal) of the same compound?
The TGI was 2.45 µM.

What about the GI50 (A498 renal) of the same compound?
Its GI50 is 0.197 µM.

What about the TGI (A498 renal) of the same compound?
The TGI was 0.875 µM.

What about the GI50 (KM12 colon) of the same compound?
The GI50 was 0.418 µM.

What about the TGI (KM12 colon) of the same compound?
Its TGI is greater than 100 µM.

And the GI50 (CCRF-CEM leukemia)?
Its GI50 is 0.464 µM.

What about the TGI (CCRF-CEM leukemia) of the same compound?
Its TGI is greater than 100 µM.

And the GI50 (NCI-H226 lung)?
Its GI50 is 2.39 µM.

And the TGI (NCI-H226 lung)?
The TGI was greater than 100 µM.

And the GI50 (SW-620 colon)?
Its GI50 is 0.444 µM.

What about the TGI (SW-620 colon) of the same compound?
The TGI was greater than 100 µM.

What about the GI50 (IGROV1 ovarian) of the same compound?
Its GI50 is 0.808 µM.

And the TGI (IGROV1 ovarian)?
Its TGI is greater than 55.7 µM.

What about the GI50 (NCI-H460 lung) of the same compound?
The GI50 was 0.471 µM.

And the TGI (NCI-H460 lung)?
Its TGI is greater than 100 µM.

And the GI50 (HOP-92 NSCLC)?
The GI50 was 4.04 µM.

And the TGI (HOP-92 NSCLC)?
Its TGI is greater than 64.1 µM.

And the TGI (UACC-257 melanoma)?
Its TGI is greater than 100 µM.

What about the GI50 (SR leukemia) of the same compound?
The GI50 was 0.522 µM.

What about the TGI (SR leukemia) of the same compound?
Its TGI is greater than 100 µM.

What about the GI50 (M14 melanoma) of the same compound?
The GI50 was 0.445 µM.

What about the TGI (M14 melanoma) of the same compound?
Its TGI is greater than 100 µM.

What about the GI50 (SF-539 CNS) of the same compound?
The GI50 was 0.327 µM.

And the TGI (SF-539 CNS)?
Its TGI is 1.66 µM.

What about the GI50 (MCF7 breast) of the same compound?
Its GI50 is 0.454 µM.

What about the TGI (MCF7 breast) of the same compound?
Its TGI is greater than 100 µM.

What about the GI50 (SK-MEL-2 melanoma) of the same compound?
Its GI50 is 2.98 µM.

What about the TGI (SK-MEL-2 melanoma) of the same compound?
The TGI was 27.8 µM.

And the GI50 (HCT-116 colon)?
Its GI50 is 0.441 µM.

And the TGI (HCT-116 colon)?
Its TGI is greater than 100 µM.

What about the GI50 (SK-MEL-28 melanoma) of the same compound?
Its GI50 is 3.28 µM.

And the TGI (SK-MEL-28 melanoma)?
The TGI was greater than 100 µM.

And the GI50 (RPMI-8226 leukemia)?
The GI50 was 1.42 µM.

And the TGI (RPMI-8226 leukemia)?
Its TGI is greater than 100 µM.

And the GI50 (SK-MEL-5 melanoma)?
Its GI50 is 0.436 µM.

What about the TGI (SK-MEL-5 melanoma) of the same compound?
The TGI was greater than 100 µM.

What about the GI50 (DU-145 prostate) of the same compound?
The GI50 was 0.777 µM.

What about the TGI (DU-145 prostate) of the same compound?
Its TGI is greater than 30.4 µM.

What about the GI50 (OVCAR-3 ovarian) of the same compound?
Its GI50 is 0.284 µM.

What about the TGI (OVCAR-3 ovarian) of the same compound?
The TGI was 0.799 µM.

What about the GI50 (HL-60(TB) leukemia) of the same compound?
The GI50 was 0.34 µM.

And the TGI (HL-60(TB) leukemia)?
Its TGI is 1.64 µM.

What about the GI50 (HT29 colon) of the same compound?
The GI50 was 0.396 µM.

And the TGI (HT29 colon)?
Its TGI is greater than 100 µM.
